PubChem BioAssay (NCI)
Several values for one entry are separate records, joined by “and”; a condition that tells them apart may be missing. Equal entries are not always repeated.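 These data come from cells grown in 96-well plates and exposed to compound for 48 hours at five concentrations. GI50 is the concentration that inhibits growth by half. At the TGI there is no net growth.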

Legend:
Assay in all cases: NCI tumour cell line growth inhibition, 48 h
[1] = test system: M14 melanoma
[2] = test system: OVCAR-3 ovarian
[3] = test system: HOP-62 NSCLC
[4] = test system: RXF-631 renal
[5] = test system: SN12K1 renal
[6] = test system: MOLT-4 leukemia
[7] = test system: UACC-257 melanoma
[8] = test system: COLO 205 colon
[9] = test system: P388 leukemia
[10] = test system: MCF7 breast
[11] = test system: SW-620 colon
[12] = test system: A498 renal
[13] = test system: DLD-1 colon
[14] = test system: MDA-MB-435
[15] = test system: MDA-MB-231 breast
[16] = test system: SNB-75 CNS
[17] = test system: OVCAR-5 ovarian
[18] = test system: M19-MEL melanoma
[19] = test system: HT29 colon
[20] = test system: TK-10 renal
[21] = test system: CCRF-CEM leukemia
[22] = test system: PC-3 prostate
[23] = test system: HOP-18 NSCLC
[24] = test system: U251 CNS
[25] = test system: NCI-H23 lung
[26] = test system: SK-OV-3 ovarian
[27] = test system: OVCAR-8 ovarian
[28] = test system: IGROV1 ovarian
[29] = test system: HS 578T breast
[30] = test system: SK-MEL-2 melanoma
[31] = test system: HCT-116 colon
[32] = test system: EKVX NSCLC
[33] = test system: NCI-H460 lung
[34] = test system: KM12 colon
[35] = test system: NCI-H522 lung
[36] = test system: A549 NSCLC
[37] = test system: LOX IMVI melanoma
[38] = test system: SN12C renal
[39] = test system: KM20L2 colon
[40] = test system: XF 498 CNS
[41] = test system: DMS 114 small cell lung
[42] = test system: CAKI-1 renal
[43] = test system: SK-MEL-28 melanoma
[44] = test system: OVCAR-4 ovarian
[45] = test system: HCT-15 colon
[46] = test system: UO-31 renal
[47] = test system: MALME-3M melanoma
[48] = test system: NCI-H226 lung
[49] = test system: DMS 273 small cell lung
[50] = test system: BT-549 breast
[51] = test system: 786-0 renal
[52] = test system: T-47D breast

O=NN(CCCl)C(=O)NCCCl
GI50 [1]: 215 µM | TGI [1]: 234 µM and 158 µM and > 308 µM | GI50 [2]: 63.9 µM and > 295 µM | TGI [2]: 152 µM and 159 µM and > 372 µM | GI50 [3]: 64.3 µM and 281 µM | TGI [3]: 135 µM and 209 µM and > 389 µM | TGI [4]: 203 µM | TGI [5]: 127 µM | GI50 [6]: 39.3 µM and 110 µM | TGI [6]: 151 µM and 161 µM and 320 µM | GI50 [7]: > 258 µM | TGI [7]: 238 µM and 159 µM and > 369 µM | GI50 [8]: 47.2 µM and 202 µM | TGI [8]: 90.2 µM and 144 µM and > 286 µM | TGI [9]: 40.9 µM | GI50 [10]: 231 µM | TGI [10]: 250 µM and 191 µM and > 312 µM | GI50 [11]: 40.1 µM and 102 µM | TGI [11]: 102 µM and 130 µM and 229 µM | GI50 [12]: 178 µM | TGI [12]: 250 µM and 221 µM | TGI [13]: 176 µM | GI50 [14]: 50 µM and 331 µM | TGI [14]: 127 µM and 147 µM and > 500 µM | GI50 [15]: 61.8 µM and 224 µM | TGI [15]: 164 µM and 160 µM and > 295 µM | GI50 [16]: 195 µM | TGI [16]: 127 µM and 128 µM and > 421 µM | GI50 [17]: 52.3 µM and > 500 µM | TGI [17]: 104 µM and 184 µM and > 500 µM | TGI [18]: 160 µM | GI50 [19]: 56.4 µM and 209 µM | TGI [19]: 133 µM and 166 µM and > 361 µM | GI50 [20]: 59.6 µM and > 279 µM | TGI [20]: 144 µM and 173 µM and > 373 µM | GI50 [21]: 46 µM and 33.6 µM | TGI [21]: 142 µM and 97.8 µM and 65.6 µM | GI50 [22]: > 305 µM | TGI [22]: 209 µM and > 390 µM | TGI [23]: 160 µM | GI50 [24]: 31.3 µM and 146 µM | TGI [24]: 66.4 µM and 124 µM and > 306 µM | GI50 [25]: > 272 µM | TGI [25]: 228 µM and 182 µM and > 367 µM | GI50 [26]: 226 µM and > 500 µM | TGI [26]: 250 µM and 211 µM and > 500 µM | GI50 [27]: 51.3 µM and > 320 µM | TGI [27]: 164 µM and 197 µM and > 437 µM | GI50 [28]: 55.9 µM and 196 µM | TGI [28]: 176 µM and 150 µM and > 374 µM | GI50 [29]: 122 µM and 252 µM | TGI [29]: 205 µM and 231 µM and > 317 µM | TGI [30]: 115 µM and 178 µM and > 500 µM | GI50 [31]: 62.5 µM and 112 µM | TGI [31]: 155 µM and 156 µM and 256 µM | GI50 [32]: 152 µM and > 268 µM | TGI [32]: 250 µM and 225 µM and > 326 µM | GI50 [33]: 62.4 µM | TGI [33]: 250 µM and 168 µM | GI50 [34]: > 500 µM | TGI [34]: 250 µM and 194 µM and > 500 µM | GI50 [35]: 47.7 µM and 102 µM | TGI [35]: 107 µM and 113 µM and 179 µM | GI50 [36]: 210 µM | TGI [36]: 250 µM and 313 µM and > 379 µM | GI50 [37]: 29.5 µM and 170 µM | TGI [37]: 67.4 µM and 124 µM and 362 µM | GI50 [38]: 240 µM | TGI [38]: 185 µM and 151 µM and > 310 µM | TGI [39]: 205 µM | TGI [40]: 135 µM | TGI [41]: 142 µM | GI50 [42]: 44.9 µM and 186 µM | TGI [42]: 103 µM and 150 µM and > 278 µM | TGI [43]: 147 µM and 165 µM | GI50 [44]: 42.7 µM and > 352 µM | TGI [44]: 83.3 µM and 161 µM and > 398 µM | GI50 [45]: 52.7 µM and 121 µM | TGI [45]: 127 µM and 150 µM and > 267 µM | GI50 [46]: 75.9 µM | TGI [46]: 148 µM and 186 µM and 179 µM | GI50 [47]: 55.9 µM and 216 µM | TGI [47]: 108 µM and 161 µM and > 294 µM | GI50 [48]: 147 µM and 207 µM | TGI [48]: 250 µM and > 383 µM | TGI [49]: 157 µM | GI50 [50]: 47.3 µM and 251 µM | TGI [50]: 92.8 µM and 148 µM and > 300 µM | GI50 [51]: 60 µM and 98.6 µM | TGI [51]: 141 µM and 113 µM and > 263 µM | GI50 [52]: 74.7 µM and 234 µM | TGI [52]: 250 µM and 220 µM and > 331 µM
